The nature of data set [1]: Compressibility test (bulk/tapped density, Carr index, Hausner ratio). In kind it is physicochemical. The following applies: for Carr Index (CI): CI=100×(1−BD/TD); for Hausner ratio (Hr): Hr=TD/BD; for Description of flow: criteria of Table 5; for Bulk density BD / Tapped density TD: unit assumed. From the text:
Since a drug that causes a lot of static electricity has difficulty in handling and compressing to form a tablet when formulated, it is very difficult to implement a preparation with a uniform drug content. Accordingly, in relation to the static electricity-inducing capability and flowability of the three types of crystal form I, crystal form II, and the amorphous form, the compressibility of each preparation containing these drugs was examined.
The Carr index is used as an indication of the compressibility of a preparation and is related to convenience in formulation, that is, static electricity-inducing capability, flowability, and uniformity of drug content.
The Carr Index (CI) is calculated as follows. CI=100×(1−BD/TD) • BD: bulk density, TD: tapped density
The Hausner ratio (Hr) is also an indication related to the flowability of a powder or granular drug.
The Hausner ratio (Hr) is calculated as follows. Hr=TD/BD
As a result of the test, the bulk density and tapped density of the crystal form I, the crystal form II, and the amorphous form were obtained and summarized in Table 4, through which the Carr Index (CI) and Hausner ratio (Hr) were obtained, and based on the criteria in Table 5, the evaluation results for the Carr Index (CI), Hausner ratio (Hr), and flowability are shown in Table 6.

The nature of data set [2]: Thermal stability test (thermal stress, 80° C.). Format: physicochemical. The following applies: for Change in XRD pattern before and after thermal stress: 80° C. thermal stress (FIG. 11-14); for Change in properties (appearance): 80° C.; for Purity (%) Initial: before thermal stress test; for Purity (%) Initial / Purity (%) Month 1 / Purity (%) Day 6 / Purity (%) Day 14: HPLC; for Purity change (%) Month 1 − Initial / Purity (%) Month 1 / Purity (%) Day 6 / Purity (%) Day 14: sealed vial, oven 80° C.; for Purity change (%) Month 1 − Initial: 1 month vs initial; for Purity (%) Month 1: 1 month; for Purity (%) Day 6: 6 days; for Purity (%) Day 14: 14 days. The procedure: The crystal form I, crystal form II, and amorphous form samples of a compound of Chemical Formula 1 were subjected to a thermal stability test.
0.3 g of each sample was input into a 20 mL vial (prepared 0.3 g*3 ea for each sample), and the vial was sealed by closing a lid and then allowed to stand in an oven set at 80° C. Afterward, the sample was taken out after 6 days, 14 days, and 1 month had elapsed, and the changes in properties, purity, and XRD pattern before and after thermal stress conditions were examined. • Purity was measured under the following conditions using a HPLC. • Column: YMC-Pack Pro C18, 5 um, 4.6×150 mm • Column temperature: 35° C. • Flow rate: 1.0 mL/min • Injection volume: 5 uL • Wavelength: 220 nm • Mobile Phase A: 0.1% TFA in H2O/MeOH=60/40 • Mobile Phase B: MeOH/0.1% TFA in ACN=60/40 • Gradient:
• Diluent: H2O/ACN=80/20 • Run time: 40 min • Sample concentration: 0.7 mg/mL

Data set [3] is described as follows: Storage stability test (formulated powder, 60° C. and 75% RH). Format: physicochemical. Conditions: for Purity (%) Initial: powder mix with microcrystalline cellulose and light anhydrous silicic acid; for Purity (%) Week 2 / Purity (%) Week 4 / Purity (%) Week 8 / Purity change (%) Week 8 − Initial: powder mix; for Purity (%) Week 2: 2 weeks; for Purity (%) Week 4: 4 weeks; for Purity (%) Week 8: 8 weeks; for Purity change (%) Week 8 − Initial: 8 weeks vs initial. The procedure: In order to confirm stability when the crystal form I, crystal form II, and amorphous form of a compound of Chemical Formula 1 were formulated, powder obtained by mixing 50 mg of each sample, 149 mg of microcrystalline cellulose, and 1 mg of light anhydrous silicic acid was input into a brown glass bottle and allowed to stand in a stability chamber set under conditions of 60° C. and 75% RH, and the sample was taken out after 2 weeks, 4 weeks, 8 weeks had elapsed to confirm the purity of the compound of Chemical Formula 1 over time.
When the storage period for each storage condition was reached, 35 mg of the compound of Chemical Formula 1 was taken from each sample, input into a 50 mL volumetric flask, dissolved with an appropriate amount of diluent, and marked. The resulting solution was input into a glass centrifuge tube and centrifuged at 3,000 rpm and 5° C. for 10 minutes. The sample was taken using a glass pipette and input into a HPLC vial for analysis.

The conditions of data set [4]: in vivo; cited from earlier work.
Data set [5] addresses free fatty acid receptor 1 (FFAR1)/a G-protein coupled receptor (GPR40) (Homo sapiens, UniProt O14842). Conditions: cited from earlier work.
Where [6] appears, read: after 1 month of the thermal stress test (FIG. 10).

Chain of free fatty acid receptor 1 (FFAR1)/a G-protein coupled receptor (GPR40) (O14842 whole entry, species assumed): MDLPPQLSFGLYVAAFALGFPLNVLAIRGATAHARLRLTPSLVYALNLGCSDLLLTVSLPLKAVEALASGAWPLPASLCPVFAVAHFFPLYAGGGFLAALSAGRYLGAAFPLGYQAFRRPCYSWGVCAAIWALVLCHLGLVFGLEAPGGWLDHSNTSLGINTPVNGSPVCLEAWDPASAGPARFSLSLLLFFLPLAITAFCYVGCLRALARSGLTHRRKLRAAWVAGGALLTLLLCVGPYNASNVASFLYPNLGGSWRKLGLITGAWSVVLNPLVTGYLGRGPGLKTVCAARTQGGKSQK

Turning to `CC#C[C@@H](CC(=O)O)c1ccc(OCc2cccc(C3=CCC4(CC3)OCCO4)c2)cc1` [Crystal form I, (3S)-3-(4-(3-(1,4-dioxaspiro[4,5]dec-7-en-8-yl)benzyloxy)phenyl)hex-4-inoic acid], in data set [1], the “Carr Index (CI)” value turned out to be 13.41, the “Hausner ratio (Hr)” value was 1.15, the Description of flow result is listed as “Good (11-15)” and the Bulk density BD came out at 0.381 g/mL. Moreover, the Tapped density TD in data set [1] was found to be 0.44 g/mL. Moreover, in data set [2], the “Change in XRD pattern before and after thermal stress” value is reported as “no significant change in XRD pattern peak”; the “Purity (%) Initial” value came out at 99.40%; the “Purity change (%) Month 1 − Initial” value is −3.65%; the “Purity (%) Month 1” value is 95.75%. In data set [2], the “Purity (%) Day 6” value was 98.67% and the “Purity (%) Day 14” value is 97.91%. Besides, in data set [2] (setting [6]), the “Change in properties (appearance)” value is given as “no significant change in properties”. Besides, the Storage stability ranking result in data set [3] (60° C. and 75% RH, compared among crystal form I, crystal form II, amorphous form) is “stablest”. Moreover, the “Purity (%) Initial” value in data set [3] is recorded as 100.2%. Also, in data set [3] (60° C. and 75% RH), the “Purity (%) Week 2” value is recorded as 101.8%, the “Purity (%) Week 4” value was found to be 100.9%, the “Purity (%) Week 8” value was found to be 99.9% and the “Purity change (%) Week 8 − Initial” value is given as −0.3%.
On to `CC#C[C@@H](CC(=O)O)c1ccc(OCc2cccc(C3=CCC4(CC3)OCCO4)c2)cc1` [Amorphous form, (3S)-3-(4-(3-(1,4-dioxaspiro[4,5]dec-7-en-8-yl)benzyloxy)phenyl)hex-4-inoic acid], for which, in data set [1], the “Carr Index (CI)” value was found to be 18.48, the “Hausner ratio (Hr)” value came out at 1.23, the Description of flow entry is “Fair (16-20)” and the Bulk density BD is 0.353 g/mL. For the same compound, the Tapped density TD in data set [1] was 0.433 g/mL. Besides, the “Change in properties (appearance)” value in data set [2] (after 6 days of the thermal stress test (FIG. 10)) is recorded as “turned yellow”. In addition, in data set [2], the “Purity (%) Initial” value worked out at 99.33%, the “Purity change (%) Month 1 − Initial” value was −11.69%, the “Purity (%) Month 1” value is on record as 87.64% and the “Purity (%) Day 6” value is 96.76%. Besides, in data set [2], the “Purity (%) Day 14” value stood at 94.35%. In data set [3], the “Purity (%) Initial” value is given as 100.6%. For the same compound, in data set [3] (60° C. and 75% RH), the “Purity (%) Week 2” value was 91.5%, the “Purity (%) Week 4” value was found to be 86.8%, the “Purity (%) Week 8” value was determined as 77.5% and the “Purity change (%) Week 8 − Initial” value is listed as −23.1%.
With `CC#C[C@@H](CC(=O)O)c1ccc(OCc2cccc(C3=CCC4(CC3)OCCO4)c2)cc1` [Crystal form II, (3S)-3-(4-(3-(1,4-dioxaspiro[4,5]dec-7-en-8-yl)benzyloxy)phenyl)hex-4-inoic acid], in data set [1], the “Compressibility test results (in words)” value was “very poor”; the “Carr Index (CI)” value was 54.05; the “Hausner ratio (Hr)” value came out at 2.18; the Description of flow entry is given as “Very, very poor”. In addition, in data set [1], the Bulk density BD was 0.136 g/mL and the Tapped density TD was 0.296 g/mL. The Static electricity-inducing capability entry in data set [1] (filling a die for tableting) is given as “excessively caused static electricity”. Further, in data set [2], the “Change in XRD pattern before and after thermal stress” value is on record as “shifting of specific peaks”; the “Purity (%) Initial” value stood at 99.53%; the “Purity change (%) Month 1 − Initial” value is given as −3.75%; the “Purity (%) Month 1” value is reported as 95.78%. For the same compound, in data set [2], the “Purity (%) Day 6” value is 98.73% and the “Purity (%) Day 14” value was determined as 97.80%. The “Change in properties (appearance)” value in data set [2] (setting [6]) is given as “no significant change in properties”. In data set [3], the “Purity (%) Initial” value is reported as 99.1%. Further, in data set [3] (60° C. and 75% RH), the “Purity (%) Week 2” value came to 96.2%, the “Purity (%) Week 4” value was 92.3%, the “Purity (%) Week 8” value was 88% and the “Purity change (%) Week 8 − Initial” value was −11.1%.
Consider `CC#C[C@@H](CC(=O)O)c1ccc(OCc2cccc(C3=CCC4(CC3)OCCO4)c2)cc1` [compound of Chemical Formula 1, (3S)-3-(4-(3-(1,4-dioxaspiro[4,5]dec-7-en-8-yl)benzyloxy)phenyl)hex-4-inoic acid], for which the “Blood sugar lowering effect” value in data set [4] is given as “excellent blood sugar lowering effect”. The “Activation of FFAR1/GPR40 (increase of intracellular calcium concentration)” value in data set [5] is on record as “activates”.

The values above are taken from patent US12516036B2, “Crystal form of 3-(4-(benzyloxy)phenyl)hex-4-inoic acid derivative” (HYUNDAI PHARM CO., LTD., priority 2019, dated 2026).
